Measurements as given in patent US6737383B1, “Herbicidal oxadiazolidines” (priority 1999, dated 2004).

Columns and labels:
morningglory = assay: Test B pre/postemergence morningglory; assay type: in vivo, Ipomoea hederacea
Method in brief: (§1)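 Test chemicals in a non-phytotoxic solvent mixture with surfactant were sprayed preemergence onto planted seeds and postemergence onto plants 2 to 18 cm tall (1- to 4-leaf stage). After twelve to sixteen days in a greenhouse, injury was visually rated against untreated controls from 0 (no effect) to 10 (complete control).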

wild oat = assay: Test B pre/postemergence wild oat; assay type: in vivo, Avena fatua
Method in brief: as §1

bamyardgrass = assay: Test B flood test barnyardgrass; assay type: in vivo, Echinochloa crus-galli
Method in brief: (§2)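 Read-out is a visual response score from 0 (no effect) to 10 (complete control), assigned by comparison with untreated controls. Treatment was applied at the 2-leaf stage, and plants stayed in the greenhouse for twelve to sixteen days before scoring.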

rape = assay: Test B pre/postemergence rape; assay type: in vivo, Brassica napus
Method in brief: as §1

purple nutsedge = assay: Test B pre/postemergence purple nutsedge; assay type: in vivo, Cyperus rotundus
Method in brief: as §1

crabgrass = assay: Test B pre/postemergence crabgrass; assay type: in vivo, Digitaria sanguinalis
Method in brief: as §1

giant foxtail = assay: Test B pre/postemergence giant foxtail; assay type: in vivo, Setaria faberii
Method in brief: as §1

blackgrass = assay: Test B pre/postemergence blackgrass; assay type: in vivo, Alopecurus myosuroides
Method in brief: as §1

rice = assay: Test B flood test rice; assay type: in vivo, Oryza sativa
Method in brief: as §2

wheat = assay: Test B pre/postemergence wheat; assay type: in vivo, Triticum aestivum
Method in brief: as §1

sugar beet = assay: Test B pre/postemergence sugar beet; assay type: in vivo, Beta vulgaris
Method in brief: as §1

smallflower flatsedge = assay: Test B flood test smallflower flatsedge; assay type: in vivo, Cyperus difformis
Method in brief: as §2

corn = assay: Test B pre/postemergence corn; assay type: in vivo, Zea mays
Method in brief: as §1

bedstraw = assay: Test B pre/postemergence bedstraw; assay type: in vivo, Galium aparine
Method in brief: as §1

surinam grass = assay: Test B pre/postemergence surinam grass; assay type: in vivo, Brachiaria decumbens
Method in brief: as §1

pigweed = assay: Test B pre/postemergence pigweed; assay type: in vivo, Amaranthus retroflexus
Method in brief: as §1

[1] = Preemergence, Rate 62 g/ha, scale 0 to 10 (0 no effect, 10 complete control)
[2] = Preemergence, Rate 125 g/ha, 0 is no effect, 10 is complete control
[3] = Preemergence, Rate 250 g/ha, scale 0 to 10, 0 is no effect, 10 is complete control
[4] = Preemergence, Rate 500 g/ha, scale 0 to 10 (0 no effect, 10 complete control)
[5] = Rate 62 g/ha, Postemergence, scale of 0 to 10 where 0 is no effect and 10 is complete control
[6] = Rate 250 g/ha, Postemergence, scale 0 to 10, 0 is no effect, 10 is complete control
[7] = Rate 500 g/ha, Postemergence, scale 0 to 10
[8] = Postemergence (flood test species), Rate 125 g/ha, scale of 0 to 10 where 0 is no effect and 10 is complete control
[9] = Rate 62 g/ha, Postemergence section, flood test species, scale of 0 to 10 where 0 is no effect and 10 is complete control
[10] = Rate 250 g/ha, Postemergence (flood test), scale 0 to 10, 0 is no effect, 10 is complete control
[11] = Postemergence, Rate 125 g/ha, scale of 0 to 10 where 0 is no effect and 10 is complete control
[12] = Rate 500 g/ha, listed under Postemergence (flood test species), scale 0 to 10

C=CCn1c(=O)on(C(=O)N(c2ccc(F)cc2F)C(C)C)c1=O [Compound 151]
Morningglory plant response rating (morningglory; [1]): 0 | Morningglory plant response rating (0 to 10 scale) (morningglory; [2]): 0 | Morningglory plant response rating (morningglory; [3]): 0 | Morningglory plant response rating (morningglory; [4]): 0 | Morningglory plant response rating (morningglory; [5]): 4 | Plant response rating, Morningglory (morningglory; [6]): 6 | Morningglory plant response rating (morningglory; [7]): 6 | Wild oats plant response rating (wild oat; [1]): 8 | Wild oats plant response rating (0 to 10 scale) (wild oat; [2]): 9 | Wild oats plant response rating (wild oat; [3]): 10 | Wild oats plant response rating (wild oat; [4]): 10 | Plant response rating, Wild oats (wild oat; [6]): 6 | Wild oats plant response rating (wild oat; [7]): 8 | Barnyardgrass plant response rating (bamyardgrass; [8]): 0 | Barnyardgrass plant response rating (bamyardgrass; [9]): 0 | Plant response rating, Barnyardgrass (bamyardgrass; [10]): 0 | Barnyardgrass plant response rating (bamyardgrass; Rate 500 g/ha, listed under Postemergence (flood test species), scale 0 to 10, 0 no effect, 10 complete control): 8 | Rape plant response rating (rape; [11]): 0 | Rape plant response rating (rape; [1]): 2 | Rape plant response rating (0 to 10 scale) (rape; [2]): 8 | Rape plant response rating (rape; [3]): 10 | Rape plant response rating (rape; [4]): 10 | Rape plant response rating (rape; [5]): 0 | Plant response rating, Rape (rape; [6]): 0 | Rape plant response rating (rape; [7]): 2 | Nutsedge plant response rating (purple nutsedge; [11]): 3 | Nutsedge plant response rating (purple nutsedge; [1]): 0 | Nutsedge plant response rating (0 to 10 scale) (purple nutsedge; [2]): 0 | Nutsedge plant response rating (purple nutsedge; [3]): 0 | Nutsedge plant response rating (purple nutsedge; [4]): 2 | Nutsedge plant response rating (purple nutsedge; [5]): 2 | Plant response rating, Nutsedge (purple nutsedge; [6]): 5 | Nutsedge plant response rating (purple nutsedge; [7]): 5 | Crabgrass plant response rating (crabgrass; [11]): 9 | Crabgrass plant response rating (crabgrass; [1]): 10 | Crabgrass plant response rating (0 to 10 scale) (crabgrass; [2]): 10 | Crabgrass plant response rating (crabgrass; [3]): 10 | Crabgrass plant response rating (crabgrass; [4]): 10 | Crabgrass plant response rating (crabgrass; [5]): 8 | Plant response rating, Crabgrass (crabgrass; [6]): 9 | Crabgrass plant response rating (crabgrass; [7]): 9 | Giant foxtail plant response rating (giant foxtail; [11]): 8 | Giant foxtail plant response rating (giant foxtail; [1]): 9 | Giant foxtail plant response rating (0 to 10 scale) (giant foxtail; [2]): 10 | Giant foxtail plant response rating (giant foxtail; [3]): 10 | Giant foxtail plant response rating (giant foxtail; [4]): 10 | Giant foxtail plant response rating (giant foxtail; [5]): 7 | Plant response rating, Giant foxtail (giant foxtail; [6]): 8 | Giant foxtail plant response rating (giant foxtail; [7]): 8 | Blackgrass plant response rating (blackgrass; [11]): 8 | Blackgrass plant response rating (blackgrass; [1]): 8 | Blackgrass plant response rating (0 to 10 scale) (blackgrass; [2]): 9 | Blackgrass plant response rating (blackgrass; [3]): 10 | Blackgrass plant response rating (blackgrass; [4]): 10 | Blackgrass plant response rating (blackgrass; [5]): 8 | Plant response rating, Blackgrass (blackgrass; [6]): 8 | Blackgrass plant response rating (blackgrass; [7]): 9 | Rice plant response rating (rice; [8]): 0 | Rice plant response rating (rice; [9]): 0 | Plant response rating, Rice (rice; [10]): 0 | Rice plant response rating (rice; [12]): 0 | Wheat plant response rating (wheat; [1]): 2 | Wheat plant response rating (0 to 10 scale) (wheat; [2]): 2 | Wheat plant response rating (wheat; [3]): 4 | Wheat plant response rating (wheat; [4]): 5 | Wheat plant response rating (wheat; [5]): 0 | Plant response rating, Wheat (wheat; [6]): 4 | Wheat plant response rating (wheat; [7]): 8 | Sugarbeets plant response rating (sugar beet; [11]): 3 | Sugarbeets plant response rating (sugar beet; [1]): 1 | Sugarbeets plant response rating (0 to 10 scale) (sugar beet; [2]): 8 | Sugarbeets plant response rating (sugar beet; [3]): 10 | Sugarbeets plant response rating (sugar beet; [4]): 10 | Sugarbeets plant response rating (sugar beet; [5]): 2 | Plant response rating, Sugarbeets (sugar beet; [6]): 3 | Sugarbeets plant response rating (sugar beet; [7]): 3 | S. Flatsedge plant response rating (smallflower flatsedge; [8]): 0 | S. Flatsedge plant response rating (smallflower flatsedge; [9]): 0 | Plant response rating, S. Flatsedge (smallflower flatsedge; [10]): 0 | S. Flatsedge plant response rating (smallflower flatsedge; [12]): 8 | Corn plant response rating (corn; [11]): 0 | Corn plant response rating (corn; [1]): 0 | Corn plant response rating (0 to 10 scale) (corn; [2]): 0 | Corn plant response rating (corn; [3]): 5 | Corn plant response rating (corn; [4]): 9 | Corn plant response rating (corn; [5]): 0 | Plant response rating, Corn (corn; [6]): 2 | Corn plant response rating (corn; [7]): 6 | Bedstraw plant response rating (bedstraw; [11]): 3 | Bedstraw plant response rating (bedstraw; [1]): 0 | Bedstraw plant response rating (0 to 10 scale) (bedstraw; [2]): 0 | Bedstraw plant response rating (bedstraw; [3]): 0 | Bedstraw plant response rating (bedstraw; [4]): 0 | Bedstraw plant response rating (bedstraw; [5]): 3 | Plant response rating, Bedstraw (bedstraw; [6]): 4 | Bedstraw plant response rating (bedstraw; Rate 500 g/ha, Postemergence, scale 0 to 10, 0 no effect, 10 complete control): 7 | B. signalgrass plant response rating (surinam grass; [11]): 4 | B. signalgrass plant response rating (surinam grass; [1]): 4 | B. signalgrass plant response rating (surinam grass; [3]): 5 | B. signalgrass plant response rating (surinam grass; [4]): 7 | B. signalgrass plant response rating (surinam grass; [5]): 3 | Plant response rating, B. signalgrass (surinam grass; [6]): 6 | B. signalgrass plant response rating (surinam grass; Rate 500 g/ha, Postemergence, scale of 0 to 10 where 0 is no effect and 10 is complete control): 7 | Redroot pigweed plant response rating (pigweed; [11]): 3 | Redroot pigweed plant response rating (pigweed; [1]): 10 | Redroot pigweed plant response rating (0 to 10 scale) (pigweed; [2]): 10 | Redroot pigweed plant response rating (pigweed; [3]): 10 | Redroot pigweed plant response rating (pigweed; [4]): 10 | Redroot pigweed plant response rating (pigweed; [5]): 3 | Plant response rating, Redroot pigweed (pigweed; [6]): 5 | Redroot pigweed plant response rating (pigweed; [7]): 7
